Measured values taken from US7309712B2, “1H-pyrazoles useful in therapy” (Pfizer Limited, priority 2005, dated 2007).

molecular target: T1, Progesterone Receptor (PR) (Homo sapiens, UniProt P06401); test: In vitro functional assay for progesterone receptor (PR) antagonism: inhibition of progesterone-induced alkaline phosphatase expression in T47D cells (Screen 1.0); format: cell-based; settings: antagonist format (5 nM P4), alkaline phosphatase inhibition in T47D human mammary carcinoma cells
T1 construct: endogenous in cells; host or cells: T47D human breast mammary carcinoma cells
T1 sequence (P06401 1-933): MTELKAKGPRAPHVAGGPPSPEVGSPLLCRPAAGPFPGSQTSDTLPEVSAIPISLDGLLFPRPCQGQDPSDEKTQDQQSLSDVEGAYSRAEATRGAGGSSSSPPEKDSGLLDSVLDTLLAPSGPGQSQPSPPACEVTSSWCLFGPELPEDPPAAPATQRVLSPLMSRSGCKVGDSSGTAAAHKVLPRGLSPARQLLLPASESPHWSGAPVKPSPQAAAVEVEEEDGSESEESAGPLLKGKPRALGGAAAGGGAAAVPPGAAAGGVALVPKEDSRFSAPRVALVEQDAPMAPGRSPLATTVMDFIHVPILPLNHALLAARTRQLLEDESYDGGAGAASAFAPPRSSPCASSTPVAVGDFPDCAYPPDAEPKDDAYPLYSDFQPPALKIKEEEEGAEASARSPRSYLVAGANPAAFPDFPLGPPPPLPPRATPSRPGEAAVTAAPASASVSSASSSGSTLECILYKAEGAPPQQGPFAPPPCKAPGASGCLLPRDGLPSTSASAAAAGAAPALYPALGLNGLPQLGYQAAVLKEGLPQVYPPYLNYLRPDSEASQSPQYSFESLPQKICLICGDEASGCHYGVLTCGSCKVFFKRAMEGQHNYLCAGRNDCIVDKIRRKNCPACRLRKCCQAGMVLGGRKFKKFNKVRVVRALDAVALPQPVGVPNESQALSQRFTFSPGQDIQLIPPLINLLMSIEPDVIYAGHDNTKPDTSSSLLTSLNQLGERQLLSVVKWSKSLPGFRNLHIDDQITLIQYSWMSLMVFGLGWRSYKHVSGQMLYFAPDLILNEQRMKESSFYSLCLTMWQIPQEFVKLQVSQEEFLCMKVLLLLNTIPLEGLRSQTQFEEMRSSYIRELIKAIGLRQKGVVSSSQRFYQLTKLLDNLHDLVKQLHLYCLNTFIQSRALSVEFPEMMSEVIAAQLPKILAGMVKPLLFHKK
Excerpt: 1.0 In Vitro Functional Assay for Progesterone Receptor (PR) Antagonism
The assay for PR antagonism takes advantage of the extensively reported modulation of alkaline phosphatase (AP) expression in human breast T47D mammary carcinoma cells {Beck, et al., (1993). The progesterone antagonist RU486 acquires agonist activity upon stimulation of cAMP signalling pathways. Proc. Natl. Acad. Sci., USA, 90, 4441-4445; Fensome, et al. (2002). New progesterone receptor antagonists: 3,3-disubstituted-5-aryloxindoles. Bioorg. Med. Chem. Lett., 12, 3487-3490; Zhang et al., (2002a). 6-Aryl-1,4-dihydro-benzo d 1,3 oxazin-2-ones: a novel class of potent, selective, and orally active nonsteroidal progesterone receptor antagonists. J. Med. Chem., 45, 4379-4382; Zhang et al., (2003). Novel 6-aryl-1,4-dihydrobenzo[d]oxazine-2-thiones as potent, selective, and orally active nonsteroidal progesterone receptor agonists. Bioorganic & Med. Chem. Lett., 13, 1313-1316; Zhang et al., (2002b). Potent nonsteroidal progesterone receptor agonists: synthesis and SAR study of 6-aryl benzoxazines. Bioorganic & Med. Chem. Lett., 12, 787-790; Zhang, et al., (2000). In vitro characterization of trimegestone: a new potent and selective progestin. Steroids 65, 637-643}. […] In the absence of progesterone any agonist activity is also observed as an induction of AP activity. By running the assay in two formats (±progesterone (P4)), compounds behaving as PR antagonists, agonists or partials can be identified.
The materials required to grow T47D cells and perform the progesterone-induced AP assay are outlined in Table 1.
Assay media (agonist format): DMEM without phenol red+5% CS-FCS+2 mM Glutamax. Assay media (antagonist format): DMEM without phenol red+5% CS-FCS+2 mM Glutamax+10 nM P4.
Briefly, T47D cells are grown by propagating in DMEM+10% FBS+2 mM Glutamax at 37° C./5% CO2. At 80-90% confluence, the media is exchanged for phenol red free DMEM+5% CS-FCS (Assay media) and cultured for a further 24 hrs at 37° C./5% CO2. T47D cells are then plated at 2.5×10^4 cells/well in 100 μL assay media in sufficient 96 well plates for the assay, in triplicates of each condition. For example, for a 5-point IC50 curve on one compound, this is equivalent to […]. These plates are then cultured for 24 hrs at 37° C./5% CO2, leaving the outside wells blank by the addition of 200 μL PBS.
A 10 mM stock solution of compounds is prepared in DMSO (stored −20° C. in 10 μL aliquots). A 10 mM DMSO stock of RU486 is used as a standard pure PR antagonist. The compounds under investigation are added to assay medium, or a mixture of 0.05% pluronic acid in PBS, ±10 nM P4 to give a final concentration of 20 μM (i.e. 10 μL of the 10 mM stock to […] assay medium ±10 nM P4). The samples are mixed thoroughly and serial dilutions of compounds from 10 µM to 0.1 nM in a 96 well plate, are prepared as follows:
The outside wells are left blank. Assay medium (225 μL) is added to one half of the plate (−P4), rows 3-8, and to the other half of the plate, assay medium +10 nM P4. To row 2, 250 μL of the top concentration of compound (20 μM±10 nM P4) is added. 25 μL of the […] stock from row 2 is removed and added to the 225 μL of assay medium±10 nM P4 in row 3 and thoroughly mixed. This process is repeated down the plate to row 7 to achieve serial dilutions. The vehicle control is adjusted to contain 0.1% DMSO (i.e. 20 μL to 10 mL assay medium±10 nM P4 to give a concentration of 0.2% DMSO, add 250 μL to row 8).
100 μL of reagent from the dilution plates are transferred into the corresponding wells containing T47D cells assay medium, to give a final concentration of 10 μM to 0.1 nM compound (5 nM P4 antagonist format). The cells were incubated for 20 hrs at 37° C./5% CO2., then media is removed, cells washed with PBS (200 μL) and lysed by placing the cells at −80° C. for 15 min and thawing at room temp. The freeze-thaw lysis is repeated, then PBS (50 μL) is added to each well. […]

Question: For `CS(=O)(=O)Cn1nc(C2CC2)c(Oc2ccc(C#N)c(F)c2)c1C1CC1` [Example 5, 4-(3,5-dicyclopropyl-1-methanesulfonylmethyl-1H-pyrazol-4-yloxy)-2-fluoro-benzonitrile], which IC50 is on record?
Answer: 0.044 µM

Question: For `Cc1cc(Oc2c(C3CC3)nn(CS(C)(=O)=O)c2C)cc(C)c1C#N` [Example 19, 4-(3-cyclopropyl-1-methanesulfonylmethyl-5-methyl-1H-pyrazol-4-yloxy)-2,6-dimethyl-benzonitrile], which IC50 is on record?
Answer: 0.007 µM

Question: Which IC50 does the source give for `Cc1cc(Oc2c(C3CC3)nn(CS(C)(=O)=O)c2C2CC2)cc(C)c1C#N` [Example 3, 4-(3,5-dicyclopropyl-1-methanesulfonylmethyl-1H-pyrazol-4-yloxy)-2,6-dimethyl-benzonitrile] here?
Answer: 0.008 µM

Question: With `Cc1cc(Oc2c(C3CC3)nn(CS(C)(=O)=O)c2C)ccc1C#N` [Example 17, 4-(3-cyclopropyl-1-methanesulfonylmethyl-5-methyl-1H-pyrazol-4-yloxy)-2-methyl-benzonitrile] as the molecule, how does the IC50 read?
Answer: 0.022 µM

Question: With `Cc1cc(Oc2c(C)nn(CS(C)(=O)=O)c2C2CC2)cc(C)c1C#N` [Example 20, 4-(5-cyclopropyl-1-methanesulfonylmethyl-3-methyl-1H-pyrazol-4-yloxy)-2,6-dimethyl-benzonitrile] as the molecule, how does the IC50 read?
Answer: 0.015 µM

Question: With `CCc1nn(CS(C)(=O)=O)c(CC)c1Oc1cc(C)c(C#N)c(C)c1` [Example 23, 4-(3,5-diethyl-1-methanesulfonylmethyl-1H-pyrazol-4-yloxy)-2,6-dimethyl-benzonitrile] as the molecule, how does the IC50 read?
Answer: 0.006 µM

tested on: not given; test: not given; settings: not given

Question: Which melting point does the source give for `Cc1cc(Oc2c(C3CC3)nn(CS(C)(=O)=O)c2C2CC2)ccc1C#N` [Example 2, 4-(3,5-dicyclopropyl-1-methanesulfonylmethyl-1H-pyrazol-4-yloxy)-2-methyl-benzonitrile] here?
Answer: 140.7 to 141.3 °C

Question: With `CS(=O)(=O)Cn1nc(C2CC2)c(Oc2ccc(C#N)cc2)c1C1CC1` [Example 1, 4-(3,5-Dicyclopropyl-1-methanesulfonylmethyl-1H-pyrazol-4-yloxy)-benzonitrile] as the molecule, how does the melting point read?
Answer: 141.5 to 142.5 °C
